The structures appear in SMILES notation.

As for `O=C(O)CCOc1ccc(NC(=O)c2ccccc2O)cc1` [Compound 8, 3-(4-salicyloylamino)phenoxy propionic acid], the melting point lay in the range of 165 to 167 °C.
For `O=C(O)CCCCCCCOc1ccccc1NC(=O)c1ccccc1O` [Compound 4], the melting point was 122 to 124 °C.
The figure for `O=C(O)CCCOc1ccc(Cl)cc1NC(=O)c1ccccc1O` [Compound 3] is 231 to 234 °C.
As for `COc1ccccc1C(=O)Nc1ccc(OCCC(=O)O)cc1` [Compound 9], the melting point lay within 154 to 158 °C.
The figure for `O=C(O)COc1ccc(CCCNC(=O)c2ccccc2O)cc1` [Compound 10] is 124 to 126.5 °C.
The figure for `O=C(O)CCCCCCCOc1ccc(Cl)cc1NC(=O)c1ccccc1O` [Compound 1, 8-[(N-Salicyloyl-2-amino-4-chloro)phenoxyl]octanoic acid] is 152 to 153 °C; for `O=C(O)CCCCOc1ccc(Cl)cc1NC(=O)c1ccccc1O` [Compound 2] it is 166 to 169 °C.
The figure for `COc1cccc(C(=O)Nc2ccc(OCCC(=O)O)cc2)c1OC` [Compound 7] is 135 to 137 °C.
`O=C(O)CCCCOc1ccccc1NC(=O)c1ccccc1O` [Compound 5] had a melting point of 147 to 149 °C.

The record behind these values is patent publication US7151191B2, “Compounds and compositions for delivering active agents” (Emisphere Technologies, Inc., priority 2000, dated 2006).
